Assay results taken from ChEMBL document CHEMBL1152560, “Substituted 2-arylbenzothiazoles as kinase inhibitors: hit-to-lead optimization” (Bioorg Med Chem, 2009).

How the values were obtained:
[1] = molecular target: CDC42BPA protein (Homo sapiens) (UniProt B9EGA7); test: Residual activity of CDC42BPA at 10 uM by microplate scintillation counting
[2] = molecular target: Tyrosine-protein kinase FRK (Homo sapiens) (UniProt P42685); test: Residual activity of FRK at 0.1 uM by microplate scintillation counting
Tyrosine-protein kinase FRK (Homo sapiens), sequence (P42685 whole entry): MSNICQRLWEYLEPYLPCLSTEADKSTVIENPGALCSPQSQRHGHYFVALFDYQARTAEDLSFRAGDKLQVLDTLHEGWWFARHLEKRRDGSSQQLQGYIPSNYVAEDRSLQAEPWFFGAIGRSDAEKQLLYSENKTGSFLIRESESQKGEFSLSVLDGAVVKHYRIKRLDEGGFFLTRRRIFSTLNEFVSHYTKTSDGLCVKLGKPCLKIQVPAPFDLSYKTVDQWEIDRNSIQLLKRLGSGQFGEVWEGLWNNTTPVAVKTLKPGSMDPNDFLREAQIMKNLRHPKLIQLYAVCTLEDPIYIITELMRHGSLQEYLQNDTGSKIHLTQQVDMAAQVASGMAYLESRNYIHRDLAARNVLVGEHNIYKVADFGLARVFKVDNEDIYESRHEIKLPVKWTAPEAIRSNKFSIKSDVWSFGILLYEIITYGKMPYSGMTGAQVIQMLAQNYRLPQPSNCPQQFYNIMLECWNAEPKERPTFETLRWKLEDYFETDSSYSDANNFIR

[3] = molecular target: SRSF protein kinase 2 (Homo sapiens) (UniProt P78362); test: Residual activity of SRPK2 at 1 uM by microplate scintillation counting
[4] = molecular target: Tyrosine-protein kinase receptor UFO (Homo sapiens) (UniProt P30530); test: Residual activity of AXL at 10 uM by microplate scintillation counting
[5] = molecular target: 3-phosphoinositide-dependent protein kinase 1 (Homo sapiens) (UniProt O15530); test: Residual activity of PDK1 at 0.1 uM by microplate scintillation counting
3-phosphoinositide-dependent protein kinase 1 (Homo sapiens), sequence (O15530 whole entry, looked up): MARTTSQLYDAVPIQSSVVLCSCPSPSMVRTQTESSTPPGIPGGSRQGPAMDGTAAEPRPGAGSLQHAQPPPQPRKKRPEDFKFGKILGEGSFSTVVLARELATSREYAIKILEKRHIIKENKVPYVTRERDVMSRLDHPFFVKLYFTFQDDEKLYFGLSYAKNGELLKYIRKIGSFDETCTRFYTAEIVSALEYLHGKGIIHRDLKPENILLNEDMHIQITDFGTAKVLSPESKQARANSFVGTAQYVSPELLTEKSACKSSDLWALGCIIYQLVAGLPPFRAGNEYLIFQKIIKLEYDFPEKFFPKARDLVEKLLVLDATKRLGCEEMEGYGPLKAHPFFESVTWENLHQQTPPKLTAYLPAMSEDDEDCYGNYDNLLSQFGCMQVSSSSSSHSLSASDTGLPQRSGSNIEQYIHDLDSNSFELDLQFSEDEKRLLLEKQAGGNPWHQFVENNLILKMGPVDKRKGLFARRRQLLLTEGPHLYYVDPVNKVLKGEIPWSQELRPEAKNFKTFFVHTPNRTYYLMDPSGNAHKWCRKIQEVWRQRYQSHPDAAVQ

[6] = molecular target: Focal adhesion kinase 1 (Homo sapiens) (UniProt Q05397); test: Residual activity of FAK at 10 uM by microplate scintillation counting
[7] = molecular target: T1, Serine/threonine-protein kinase Nek1 (Homo sapiens) (UniProt Q96PY6); test: Residual activity of NEK1 at 10 uM by microplate scintillation counting
T1 sequence (whole entry): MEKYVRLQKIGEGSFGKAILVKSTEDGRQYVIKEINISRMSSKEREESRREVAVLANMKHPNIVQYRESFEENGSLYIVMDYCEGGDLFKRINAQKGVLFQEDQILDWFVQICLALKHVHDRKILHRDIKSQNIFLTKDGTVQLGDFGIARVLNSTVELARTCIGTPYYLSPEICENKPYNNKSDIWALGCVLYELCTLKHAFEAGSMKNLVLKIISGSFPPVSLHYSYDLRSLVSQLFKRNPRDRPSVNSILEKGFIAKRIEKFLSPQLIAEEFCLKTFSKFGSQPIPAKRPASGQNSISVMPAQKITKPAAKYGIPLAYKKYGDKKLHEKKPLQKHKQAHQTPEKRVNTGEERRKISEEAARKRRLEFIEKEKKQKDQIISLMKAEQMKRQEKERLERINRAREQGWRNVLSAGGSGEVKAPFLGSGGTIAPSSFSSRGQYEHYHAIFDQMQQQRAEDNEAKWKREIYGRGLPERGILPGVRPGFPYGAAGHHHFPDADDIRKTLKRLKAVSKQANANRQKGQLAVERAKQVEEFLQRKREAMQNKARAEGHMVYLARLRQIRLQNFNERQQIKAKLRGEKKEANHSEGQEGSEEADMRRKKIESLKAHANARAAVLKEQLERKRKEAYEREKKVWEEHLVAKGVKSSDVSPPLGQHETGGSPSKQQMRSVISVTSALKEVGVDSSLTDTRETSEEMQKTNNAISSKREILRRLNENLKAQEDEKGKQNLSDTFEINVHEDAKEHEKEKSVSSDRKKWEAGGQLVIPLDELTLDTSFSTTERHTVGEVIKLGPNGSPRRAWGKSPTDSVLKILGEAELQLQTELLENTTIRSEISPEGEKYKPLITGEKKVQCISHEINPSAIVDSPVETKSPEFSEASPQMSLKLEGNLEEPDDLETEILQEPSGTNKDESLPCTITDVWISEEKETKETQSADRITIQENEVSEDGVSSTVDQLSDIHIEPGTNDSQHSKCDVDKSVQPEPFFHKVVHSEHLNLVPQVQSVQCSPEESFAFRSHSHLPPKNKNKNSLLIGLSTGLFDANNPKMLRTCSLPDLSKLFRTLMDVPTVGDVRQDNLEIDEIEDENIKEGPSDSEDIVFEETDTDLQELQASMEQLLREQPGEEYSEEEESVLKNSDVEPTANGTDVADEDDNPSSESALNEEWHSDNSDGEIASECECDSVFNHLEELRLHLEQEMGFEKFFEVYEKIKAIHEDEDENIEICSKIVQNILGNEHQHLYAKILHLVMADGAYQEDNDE

[8] = molecular target: Tyrosine-protein kinase Lck (Homo sapiens) (UniProt P06239); test: Residual activity of LCK at 10 uM by microplate scintillation counting
[9] = molecular target: G protein-coupled receptor kinase 5 (Homo sapiens) (UniProt P34947); test: Residual activity of GRK5 at 0.1 uM by microplate scintillation counting
G protein-coupled receptor kinase 5 (Homo sapiens), sequence (P34947 whole entry, looked up): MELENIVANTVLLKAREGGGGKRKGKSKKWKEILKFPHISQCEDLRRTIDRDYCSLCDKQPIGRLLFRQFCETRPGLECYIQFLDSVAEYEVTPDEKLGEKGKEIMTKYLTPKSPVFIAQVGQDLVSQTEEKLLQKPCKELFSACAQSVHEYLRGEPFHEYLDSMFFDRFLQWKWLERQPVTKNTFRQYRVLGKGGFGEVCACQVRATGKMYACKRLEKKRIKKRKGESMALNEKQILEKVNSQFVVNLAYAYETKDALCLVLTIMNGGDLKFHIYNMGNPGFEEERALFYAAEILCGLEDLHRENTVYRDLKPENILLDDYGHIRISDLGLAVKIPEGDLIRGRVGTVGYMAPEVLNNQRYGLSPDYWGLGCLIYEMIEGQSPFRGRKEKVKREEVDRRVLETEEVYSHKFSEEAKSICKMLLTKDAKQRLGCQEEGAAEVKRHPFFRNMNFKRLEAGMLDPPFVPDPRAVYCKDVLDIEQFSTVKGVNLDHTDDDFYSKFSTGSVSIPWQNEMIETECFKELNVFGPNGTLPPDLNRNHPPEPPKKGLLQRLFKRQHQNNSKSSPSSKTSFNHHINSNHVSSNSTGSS

[10] = molecular target: Serine/threonine-protein kinase B-raf (Homo sapiens) (UniProt P15056); test: Residual activity of Wild type B-RAF at 1 uM by microplate scintillation counting
[11] = molecular target: Tyrosine-protein kinase Fer (Homo sapiens) (UniProt P16591); test: Residual activity of FER at 1 uM by microplate scintillation counting
[12] = molecular target: T2, Lymphokine-activated killer T-cell-originated protein kinase (Homo sapiens) (UniProt Q96KB5); test: Residual activity of PBK at 10 uM by microplate scintillation counting
T2 sequence (whole entry): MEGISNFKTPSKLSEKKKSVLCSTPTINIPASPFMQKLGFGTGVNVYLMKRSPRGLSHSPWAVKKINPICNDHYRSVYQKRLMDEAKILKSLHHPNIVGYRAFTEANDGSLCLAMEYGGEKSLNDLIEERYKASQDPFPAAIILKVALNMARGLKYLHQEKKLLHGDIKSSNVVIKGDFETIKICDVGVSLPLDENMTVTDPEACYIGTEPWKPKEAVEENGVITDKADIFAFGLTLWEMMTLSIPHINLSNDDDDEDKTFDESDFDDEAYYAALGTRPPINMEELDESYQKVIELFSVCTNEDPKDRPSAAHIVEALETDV

[13] = molecular target: Non-receptor tyrosine-protein kinase TYK2 (Homo sapiens) (UniProt P29597); test: Residual activity of TYK2 at 0.1 uM by microplate scintillation counting
Non-receptor tyrosine-protein kinase TYK2 (Homo sapiens), sequence (P29597 whole entry): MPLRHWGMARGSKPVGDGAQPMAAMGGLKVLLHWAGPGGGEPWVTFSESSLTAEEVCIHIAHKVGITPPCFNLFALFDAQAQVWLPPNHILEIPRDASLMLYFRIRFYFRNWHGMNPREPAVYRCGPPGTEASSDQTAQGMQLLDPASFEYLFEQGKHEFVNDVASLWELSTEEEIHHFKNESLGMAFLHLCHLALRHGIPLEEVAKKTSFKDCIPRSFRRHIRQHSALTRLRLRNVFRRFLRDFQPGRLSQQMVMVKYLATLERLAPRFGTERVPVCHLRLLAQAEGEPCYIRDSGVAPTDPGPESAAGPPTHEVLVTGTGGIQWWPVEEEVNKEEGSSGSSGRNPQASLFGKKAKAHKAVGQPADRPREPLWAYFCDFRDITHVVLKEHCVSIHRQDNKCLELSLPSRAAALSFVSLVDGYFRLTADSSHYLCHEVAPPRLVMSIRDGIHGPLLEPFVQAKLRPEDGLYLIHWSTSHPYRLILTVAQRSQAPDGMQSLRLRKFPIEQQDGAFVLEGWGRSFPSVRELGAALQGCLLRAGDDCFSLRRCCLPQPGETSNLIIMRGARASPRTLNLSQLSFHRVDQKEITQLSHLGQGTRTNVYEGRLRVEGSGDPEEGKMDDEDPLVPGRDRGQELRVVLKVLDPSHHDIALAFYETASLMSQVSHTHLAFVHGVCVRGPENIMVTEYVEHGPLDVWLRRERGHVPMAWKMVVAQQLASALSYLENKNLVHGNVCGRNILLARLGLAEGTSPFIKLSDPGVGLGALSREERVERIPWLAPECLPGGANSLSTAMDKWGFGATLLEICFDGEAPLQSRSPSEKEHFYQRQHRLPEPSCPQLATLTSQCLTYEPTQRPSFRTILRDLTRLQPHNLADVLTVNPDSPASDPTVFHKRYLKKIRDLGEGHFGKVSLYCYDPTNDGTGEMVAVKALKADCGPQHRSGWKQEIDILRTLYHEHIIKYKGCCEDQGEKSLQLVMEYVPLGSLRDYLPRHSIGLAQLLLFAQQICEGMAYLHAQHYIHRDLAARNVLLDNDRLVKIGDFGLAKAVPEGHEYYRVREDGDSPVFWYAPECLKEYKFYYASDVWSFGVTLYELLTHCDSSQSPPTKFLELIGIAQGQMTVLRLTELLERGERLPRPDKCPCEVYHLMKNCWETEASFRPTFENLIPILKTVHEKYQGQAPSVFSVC

[14] = molecular target: Ephrin type-A receptor 5 (Homo sapiens) (UniProt P54756); test: Residual activity of EPHA5 at 1 uM by microplate scintillation counting
[15] = molecular target: Ephrin type-A receptor 5 (Homo sapiens) (UniProt P54756); test: Residual activity of EPHA5 at 10 uM by microplate scintillation counting
[16] = molecular target: SRSF protein kinase 3 (Homo sapiens) (UniProt Q9UPE1); test: Residual activity of STK23 at 10 uM by microplate scintillation counting
SRSF protein kinase 3 (Homo sapiens), sequence (Q9UPE1 whole entry): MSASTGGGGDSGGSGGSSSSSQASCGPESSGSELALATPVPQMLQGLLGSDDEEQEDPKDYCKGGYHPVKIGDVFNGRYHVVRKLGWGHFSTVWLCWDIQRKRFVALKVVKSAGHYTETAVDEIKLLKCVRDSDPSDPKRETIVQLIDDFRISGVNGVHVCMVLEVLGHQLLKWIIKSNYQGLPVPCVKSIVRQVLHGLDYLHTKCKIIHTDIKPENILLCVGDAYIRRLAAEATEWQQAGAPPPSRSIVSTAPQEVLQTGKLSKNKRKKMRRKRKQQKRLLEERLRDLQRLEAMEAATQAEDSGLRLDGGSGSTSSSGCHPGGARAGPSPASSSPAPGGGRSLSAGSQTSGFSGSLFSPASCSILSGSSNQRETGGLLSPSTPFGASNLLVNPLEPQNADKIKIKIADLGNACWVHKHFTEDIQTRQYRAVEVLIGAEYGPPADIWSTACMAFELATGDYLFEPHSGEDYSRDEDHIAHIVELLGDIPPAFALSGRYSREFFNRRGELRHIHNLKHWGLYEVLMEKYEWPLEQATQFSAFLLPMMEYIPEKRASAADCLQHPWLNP

CDC42BPA protein (Homo sapiens), sequence (B9EGA7 as listed by the source): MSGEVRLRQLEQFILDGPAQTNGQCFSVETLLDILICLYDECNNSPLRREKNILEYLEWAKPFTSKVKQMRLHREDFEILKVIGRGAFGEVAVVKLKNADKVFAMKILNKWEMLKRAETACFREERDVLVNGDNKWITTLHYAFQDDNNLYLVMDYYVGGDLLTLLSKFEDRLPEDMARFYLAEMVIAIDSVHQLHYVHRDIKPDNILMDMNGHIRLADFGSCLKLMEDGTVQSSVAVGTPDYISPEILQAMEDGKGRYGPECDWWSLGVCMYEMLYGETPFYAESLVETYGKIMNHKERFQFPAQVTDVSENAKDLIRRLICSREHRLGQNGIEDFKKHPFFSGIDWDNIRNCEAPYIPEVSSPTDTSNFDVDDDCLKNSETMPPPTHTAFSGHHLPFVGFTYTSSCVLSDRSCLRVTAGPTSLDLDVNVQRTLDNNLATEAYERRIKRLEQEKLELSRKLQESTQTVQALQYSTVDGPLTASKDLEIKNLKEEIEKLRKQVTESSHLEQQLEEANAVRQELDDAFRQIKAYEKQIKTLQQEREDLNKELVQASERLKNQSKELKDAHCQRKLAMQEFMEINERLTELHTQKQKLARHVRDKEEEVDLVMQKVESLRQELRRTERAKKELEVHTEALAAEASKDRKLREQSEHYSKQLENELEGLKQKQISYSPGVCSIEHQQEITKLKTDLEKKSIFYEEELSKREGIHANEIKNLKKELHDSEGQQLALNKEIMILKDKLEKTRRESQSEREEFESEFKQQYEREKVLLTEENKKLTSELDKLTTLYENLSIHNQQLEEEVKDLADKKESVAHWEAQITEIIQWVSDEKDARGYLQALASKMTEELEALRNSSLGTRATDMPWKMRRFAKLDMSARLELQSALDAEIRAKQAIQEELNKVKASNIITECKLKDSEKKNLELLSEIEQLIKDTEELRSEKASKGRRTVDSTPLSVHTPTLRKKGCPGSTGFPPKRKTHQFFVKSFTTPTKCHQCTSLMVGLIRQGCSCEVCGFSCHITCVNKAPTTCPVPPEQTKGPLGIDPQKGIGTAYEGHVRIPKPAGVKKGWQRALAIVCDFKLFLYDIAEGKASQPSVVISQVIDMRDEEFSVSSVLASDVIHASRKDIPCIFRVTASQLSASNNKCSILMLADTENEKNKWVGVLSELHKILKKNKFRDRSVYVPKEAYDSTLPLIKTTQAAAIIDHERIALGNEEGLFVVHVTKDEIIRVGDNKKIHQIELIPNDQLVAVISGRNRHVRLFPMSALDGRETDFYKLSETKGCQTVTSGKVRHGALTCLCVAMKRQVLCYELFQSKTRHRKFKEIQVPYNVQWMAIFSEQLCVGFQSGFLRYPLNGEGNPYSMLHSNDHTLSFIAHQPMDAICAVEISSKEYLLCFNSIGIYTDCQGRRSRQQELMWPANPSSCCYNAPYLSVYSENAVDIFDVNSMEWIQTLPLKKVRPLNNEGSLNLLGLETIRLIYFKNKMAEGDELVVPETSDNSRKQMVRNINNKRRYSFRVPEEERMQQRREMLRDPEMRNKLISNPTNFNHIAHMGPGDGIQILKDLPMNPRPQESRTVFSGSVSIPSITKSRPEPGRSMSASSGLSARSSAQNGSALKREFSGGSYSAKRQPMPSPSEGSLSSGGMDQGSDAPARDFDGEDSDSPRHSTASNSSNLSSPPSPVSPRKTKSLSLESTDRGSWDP

| residual activity [1] [%] | residual activity [2] [%] | residual activity [3] [%] | residual activity [4] [%] | residual activity [5] [%] | residual activity [6] [%] | residual activity [7] [%] | residual activity [8] [%] | residual activity [9] [%] | residual activity [10] [%] | residual activity [11] [%] | residual activity [13] [%] | residual activity [14] [%] | residual activity [15] [%] | residual activity [16] [%] | Structure (SMILES) | residual activity [12] [%] |
| --- | --- | --- | --- | --- | --- | --- | --- | --- | --- | --- | --- | --- | --- | --- | --- | --- |
| 79 | 100 | 97 | 57 | 95 | 93 | 93 | 6 | 86 | 77 | 103 | 94 | 119 | 236 | 113 | COc1cc2c(Oc3ccc(-c4nc5ccccc5s4)cc3)ncnc2cc1OCCCN1CCCC1 | 85 |
| 61 | 100 | 115 | 125 | 95 | 93 | 104 | 4 | 87 | 79 | 107 | 90 | 103 | 302 | 110 | COc1cc2c(Oc3ccc(-c4nc5ccccc5s4)cc3)ncnc2cc1OCCCN1CCN(C)CC1 | 102 |
| 51 | 99 | 107 | 54 | 97 | 84 | 101 | 2 | 86 | 83 | 96 | 102 | 95 | 162 | 111 | COc1cc2c(Oc3ccc(-c4nc5ccccc5s4)cc3F)ncnc2cc1OCCCN1CCN(C)CC1 | 65 |
